Test results: the supplement of paper PMC10307832

Tests used:
Test in all cases: relative viability (nuclei count vs DMSO), 5 days (fraction); higher = more cells survive
[1] = compound: CN1CCN(c2ccc3nc(-c4c(N)c5c(F)cccc5[nH]c4=O)[nH]c3c2)CC1 [Dovitinib] + CS(=O)(=O)CCNCc1ccc(-c2ccc3ncnc(Nc4ccc(OCc5cccc(F)c5)c(Cl)c4)c3c2)o1 [Lapatinib] (partner 2 µM)
Procedure, shortened: (§1)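 After 5 days of treatment, lung cancer cells in 1536-well plates were fixed and stained in a single step (final 0.05% Triton X-100, 1% formaldehyde, 1 ug/ml Hoechst) and their nuclei counted on 4× images. Treatment had been applied by pin tool the day after seeding as one drug alone or as a fixed anchor-drug dose with five library-drug doses (not always all listed) in √10 steps. Relative viability is the nuclei count of treated wells divided by that of vehicle wells, and values are medians of duplicate plates.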

[2] = compound: CN1CCN(c2ccc3nc(-c4c(N)c5c(F)cccc5[nH]c4=O)[nH]c3c2)CC1 [Dovitinib] + C[C@@H](Oc1cc(-c2cnn(C3CCNCC3)c2)cnc1N)c1c(Cl)ccc(F)c1Cl [Crizotinib] (partner 1 µM)
Procedure, shortened: as §1

[3] = compound: CN1CCN(c2ccc3nc(-c4c(N)c5c(F)cccc5[nH]c4=O)[nH]c3c2)CC1 [Dovitinib] + Cc1nc(Nc2ncc(C(=O)Nc3c(C)cccc3Cl)s2)cc(N2CCN(CCO)CC2)n1 [Dasatinib] (partner 0.075 µM)
Procedure, shortened: as §1

[4] = compound: CN1CCN(c2ccc3nc(-c4c(N)c5c(F)cccc5[nH]c4=O)[nH]c3c2)CC1 [Dovitinib] + Nc1nc2[nH]cc(CCc3ccc(C(=O)N[C@@H](CCC(=O)O)C(=O)O)cc3)c2c(=O)[nH]1 [Pemetrexed] (partner 0.2 µM)
Procedure, shortened: as §1

Cell Line	relative viability ([1]; first compound 0.02 µM)	relative viability ([1]; first compound 0.06325 µM)	relative viability ([1]; first compound 0.2 µM)	relative viability ([1]; first compound 0.6325 µM)	relative viability ([1]; first compound 2 µM)	relative viability ([2]; first compound 0.02 µM)	relative viability ([2]; first compound 0.06325 µM)	relative viability ([2]; first compound 0.2 µM)	relative viability ([2]; first compound 0.6325 µM)	relative viability ([2]; first compound 2 µM)	relative viability ([3]; first compound 0.02 µM)	relative viability ([3]; first compound 0.06325 µM)	relative viability ([3]; first compound 0.2 µM)	relative viability ([3]; first compound 0.6325 µM)	relative viability ([3]; first compound 2 µM)	relative viability ([4]; first compound 0.02 µM)	relative viability ([4]; first compound 0.06325 µM)	relative viability ([4]; first compound 0.2 µM)	relative viability ([4]; first compound 0.6325 µM)	relative viability ([4]; first compound 2 µM)
LCLC-97TM1	0.835	0.752	1.02	0.602	1.03	0.332	0.305	0.372	0.275	0.253	0.8	0.896	0.887	0.876	0.775	0.16	0.155	0.198	0.184	0.163
HARA	0.914	0.716	0.564	0.805	0.602	1.07	1.08	0.985	1.1	1.07	0.319	0.152	0.275	0.226	0.291	0.256	0.254	0.233	0.241	0.258
HCC-78	0.539	–	0.901	1.03	0.663	0.334	–	0.356	0.347	0.363	0.426	0.328	0.392	0.453	0.357	0.914	0.934	0.931	0.889	0.865
NCI-H1666	0.657	0.627	0.667	0.596	0.69	0.966	1.14	1.08	0.964	1.04	0.767	0.839	0.845	0.799	0.762	0.913	0.863	0.766	0.813	0.785
NCI-H2347	0.588	0.882	1	0.924	0.967	0.784	0.653	0.79	0.961	0.676	0.317	0.276	0.322	0.303	0.33	0.479	0.53	0.415	0.467	0.475
NCI-H838	0.907	1.11	1.05	0.919	0.97	0.788	0.817	0.818	0.816	0.785	0.293	0.269	0.31	0.273	0.288	0.262	0.277	0.229	0.234	0.265
NCI-H2023	0.778	0.739	1.13	0.918	0.808	0.55	0.604	0.591	0.573	0.481	0.56	0.565	0.612	0.578	0.58	0.205	0.232	0.238	0.216	0.19
201T	0.95	0.993	–	1.01	0.968	1.03	0.935	–	0.992	1.01	0.571	0.565	0.581	0.566	0.538	0.387	0.392	0.366	0.34	0.298
NCI-H1915	0.87	0.955	0.971	0.944	1.02	0.854	0.886	0.838	0.922	0.841	0.317	0.308	0.313	0.278	0.353	0.459	0.466	0.536	0.473	0.467
NCI-H2009	0.768	0.954	0.912	0.928	1.13	0.919	1.06	1.04	1.03	1.12	0.261	0.269	0.336	0.299	0.354	0.967	1.06	1.03	0.979	1.03
BEN	0.533	0.822	0.835	0.771	0.808	0.864	0.903	0.912	0.827	0.887	0.32	0.272	0.321	0.326	0.307	0.713	0.812	0.633	0.836	0.697
PC-14	0.296	0.336	0.308	0.309	0.279	0.815	0.906	0.865	0.862	0.893	0.257	0.273	0.238	0.3	0.331	0.128	0.134	0.121	0.141	0.132
SK-MES-1	0.438	0.47	0.482	0.524	0.437	1.04	0.957	0.932	1.01	0.954	0.349	0.426	0.417	0.414	0.477	0.941	0.958	0.972	0.966	1.03
NCI-H727	0.904	0.629	0.673	0.882	0.91	0.42	0.757	0.657	0.877	0.813	0.482	0.393	0.422	0.395	0.385	–	–	–	–	–
NCI-H1355	0.977	0.945	0.984	1.02	1.13	1.06	1.02	1.06	1.09	1.06	0.678	0.673	0.723	0.744	0.771	1.08	0.945	1.16	1.1	1.1
NCI-H1975	0.899	0.979	0.917	0.89	0.907	0.898	0.934	1.02	0.937	0.95	0.346	0.348	0.408	0.364	0.453	0.305	0.286	0.268	0.294	0.294
LK-2	0.878	0.914	0.858	0.83	0.709	0.216	0.215	0.275	0.223	0.281	0.282	0.242	0.281	0.325	0.396	0.309	0.274	0.287	0.342	0.265
NCI-H661	0.562	0.512	0.51	0.437	0.483	0.915	0.863	0.928	0.942	0.891	0.85	0.829	1.01	0.984	0.936	0.888	0.927	0.935	0.878	0.949
HCC-366	0.892	1.08	1.03	1.07	1.01	0.571	0.6	0.486	0.61	0.562	0.687	0.604	0.648	0.616	0.618	0.129	0.208	0.161	0.161	0.166

Cell Line	relative viability ([1]; first compound 0.02 µM)	relative viability ([1]; first compound 0.06325 µM)	relative viability ([1]; first compound 0.2 µM)	relative viability ([1]; first compound 0.6325 µM)	relative viability ([1]; first compound 2 µM)	relative viability ([2]; first compound 0.02 µM)	relative viability ([2]; first compound 0.06325 µM)	relative viability ([2]; first compound 0.2 µM)	relative viability ([2]; first compound 0.6325 µM)	relative viability ([2]; first compound 2 µM)	relative viability ([3]; first compound 0.02 µM)	relative viability ([3]; first compound 0.06325 µM)	relative viability ([3]; first compound 0.2 µM)	relative viability ([3]; first compound 0.6325 µM)	relative viability ([3]; first compound 2 µM)	relative viability ([4]; first compound 0.02 µM)	relative viability ([4]; first compound 0.06325 µM)	relative viability ([4]; first compound 0.2 µM)	relative viability ([4]; first compound 0.6325 µM)	relative viability ([4]; first compound 2 µM)
HOP-62	0.876	0.999	1	1.24	1.1	0.861	0.923	1.15	0.943	1.01	0.643	0.601	0.64	0.632	0.662	0.272	0.337	0.32	0.269	0.385
NCI-H1944	0.84	0.809	0.893	0.7	0.818	1.02	1.13	1.05	1.08	1.18	0.214	0.21	0.208	0.212	0.228	0.583	0.649	0.677	0.739	0.597
SW 1573	1.18	1.06	1.05	1.17	1.16	0.773	0.809	0.805	0.749	0.804	0.461	0.502	0.513	0.409	0.651	0.853	0.859	0.858	0.868	0.861
LU99A	0.943	0.985	1.08	0.937	0.922	0.548	0.597	0.601	0.561	0.547	0.508	0.448	0.572	0.517	0.46	0.169	0.304	0.165	0.217	0.18
NCI-H441	–	–	–	–	–	0.597	0.661	0.715	0.862	0.798	0.708	0.556	0.675	0.568	0.63	0.257	0.266	0.296	0.271	0.24
EBC-1	0.25	0.228	0.222	0.194	0.216	0.177	0.212	0.193	0.162	0.208	–	–	–	–	–	–	–	–	–	–
HCC-44	1.01	1.02	1.03	0.938	1.01	0.668	0.793	0.76	0.745	0.777	–	–	–	–	–	0.617	0.659	0.685	0.687	0.586
NCI-H1648	–	–	–	–	–	–	–	–	–	–	–	–	–	–	–	0.521	0.729	0.628	0.804	0.631
SW 900	–	–	–	–	–	–	–	–	–	–	0.741	0.586	0.548	0.546	0.61	0.473	0.477	0.476	0.534	0.491
ABC-1	1.15	1.28	1.02	1.18	0.969	1.54	1.19	1.22	1.2	1.08	0.479	0.55	0.474	0.618	0.61	–	–	–	–	–
NCI-H1793	0.875	0.658	0.684	0.657	0.631	–	–	–	–	–	0.458	0.364	0.367	0.385	0.503	1.27	0.735	0.96	0.916	0.943
NCI-H1395	1.01	0.879	1.08	1.04	1.12	–	–	–	–	–	0.448	0.423	0.437	0.402	0.425	0.91	0.807	0.933	0.911	1.02
NCI-H1299	0.948	1	0.966	0.892	0.966	0.941	0.968	0.915	0.942	1.01	–	–	–	–	–	–	–	–	–	–
ChaGo-K-1	–	–	–	–	–	1.03	1.08	1.09	1.11	1.15	0.632	0.559	0.603	0.595	0.526	0.263	0.25	0.251	0.258	0.26
NCI-H522	–	–	–	–	–	–	–	–	–	–	0.857	0.867	0.93	0.706	0.887	1.05	1.03	1.22	0.949	1.02
A549	1	0.956	0.893	0.817	0.887	0.702	0.763	0.741	0.694	0.733	–	–	–	–	–	–	–	–	–	–
IA-LM	1.07	0.693	0.709	0.648	0.821	0.678	0.838	0.73	0.722	0.682	–	–	–	–	–	–	–	–	–	–
LCLC-103H	–	–	–	–	–	0.992	0.978	0.993	0.946	0.916	0.487	0.503	0.461	0.374	0.489	0.494	0.457	0.475	0.434	0.459
Calu-6	0.99	1.04	1.11	1.08	1.09	0.674	0.827	0.665	0.847	0.779	–	–	–	–	–	–	–	–	–	–
